From patent publication US20230106864A1, “COMPOSITIONS AND METHODS FOR THE TREATMENT OF INTRACELLULAR BACTERIAL INFECTIONS” (Endolytix Technology, Inc., priority 2020, published 2023)

System: M. abscessus
Assay: Cell growth assay of M. abscessus with ABlα plus antibiotic, Fractional Inhibitory Concentration (FIC) index
Format: cell-based, Mycobacterium abscessus
Details: antibiotic in combination with ABlα; FIG. 5

Structure (SMILES) | effect on attenuation of M. abscessus growth by FIC index
NCC[C@H](O)C(=O)N[C@@H]1C[C@H](N)[C@@H](O[C@H]2O[C@H](CN)[C@@H](O)[C@H](O)[C@H]2O)[C@H](O)[C@H]1O[C@H]1O[C@H](CO)[C@@H](O)[C@H](N)[C@H]1O [amikacin] | synergistic
C[C@@H](O)[C@H]1C(=O)N2C(C(=O)[O-])=C(SC3Cn4cnc[n+]4C3)[C@H](C)[C@H]12 (stereo partly drawn) [biapenem] | synergistic
CO[C@@]1(NC(=O)Cc2cccs2)C(=O)N2C(C(=O)O)=C(COC(N)=O)CS[C@@H]21 [cefoxitin] | synergistic
